Results as given in US10871487B2, “FRET-based glucose-detection molecules” (priority 2016, dated 2020).

Assays:
[1] = target: T1, FRET-based glucose-detection molecule D241, glucose-binding region derived from E. coli mg1B (galactose binding protein), 16 = Q (Escherichia coli, UniProt P0AEE5, F39Q); assay: Kd of residue 16 variant at room temperature (D241)
T1 construct: made in E. coli, purified
From the text: (§1) Reference is also made to FIG. 2, which is a graph that illustrates, in a generalized manner, FRET behavior of molecule 20 (and of the molecules that it represents), in accordance with some applications of the invention. Three important features of molecules suitable for FRET-based glucose detection are: • (1) High contrast. That is, a large difference between the FRET:F ratio in the disassociated state and the FRET:F ratio in the associated state (referred to herein as “delta ratio” (“dR”)). In FIG. 2, this is represented as the difference between the highest FRET:F ratio and the lowest FRET:F ratio on the curve. • (2) High sensitivity at physiologically-relevant glucose concentrations when at physiologically-relevant temperatures. […]
(§2) The measurements were performed on proteins that were extracted from E. coli (in which they were produced) and purified in 50 mM Tris (pH 7.6, 1 mM CaCl_2, 100 mM NaCl_2). Measurements were performed using an Infinite (R) 200 plate reader or on a fluoroscopic microscope. FRET-based emission was measured by applying excitation at 475 nm and detecting emission at 640-800 nm. Direct fluorescence of the acceptor fluorophore was measured by applying excitation at 575 nm and detecting emission at 640-800 nm. Curves were generated from the measured points (typically 10) by a non-linear interpolation, and Kd and dR were extracted. […]

[2] = target: T2, FRET-based glucose-detection molecule D279, SEQ ID No. 4, glucose-binding region derived from E. coli mg1B (galactose binding protein), residue 16 = Q (Escherichia coli, UniProt P0AEE5, DELINS299-299[…]/F39Q); assay: FRET:F ratio at different glucose concentrations, Kd extracted from curve (D279); settings: FIG. 5B
T2 construct: red acceptor fluorophore at N-terminus; FRET sensor D279; made in E. coli, purified
From the text: (§3) Reference is also made to FIG. 2, which is a graph that illustrates, in a generalized manner, FRET behavior of molecule 20 (and of the molecules that it represents), in accordance with some applications of the invention. Three important features of molecules suitable for FRET-based glucose detection are: • (1) High contrast. That is, a large difference between the FRET:F ratio in the disassociated state and the FRET:F ratio in the associated state (referred to herein as “delta ratio” (“dR”)). […]
(§4) Reference is now made to FIG. 4, which is a set of graphs which show, for some of the molecules described hereinabove, the FRET:F ratio (y axis) at different glucose concentrations, measured at 35 degrees C.
as §2

[3] = target: T3, FRET-based glucose-detection molecule D277, SEQ ID No. 2, glucose-binding region derived from E. coli mg1B (galactose binding protein), residue 16 = Q (Escherichia coli, UniProt P0AEE5, DELINS298-299[…]/F39Q); assay: FRET:F ratio at different glucose concentrations, Kd extracted from curve (D277); settings: FIG. 5B
T3 construct: red acceptor fluorophore at N-terminus with linker; FRET sensor D277; made in E. coli, purified
From the text: as §3, §4, §2

[4] = target: T4, FRET-based glucose-detection molecule D274, SEQ ID No. 1, glucose-binding region derived from E. coli mg1B (galactose binding protein), residue 16 = Q (Escherichia coli, UniProt P0AEE5, DELINS298-299[…]/F39Q); assay: FRET:F ratio at different glucose concentrations, Kd extracted from curve (D274); settings: FIG. 5B
T4 construct: red acceptor fluorophore at N-terminus; FRET sensor D274; made in E. coli, purified
From the text: as §3, §4, §2

[5] = target: T5, FRET-based glucose-detection molecule D198, glucose-binding region derived from E. coli mg1B (galactose binding protein), 16 = A (Escherichia coli, UniProt P0AEE5, F39A); assay: Kd of residue 16 variant at room temperature (D198)
T5 construct: made in E. coli, purified
From the text: as §1, §2

[6] = target: T6, FRET-based glucose-detection molecule D263, glucose-binding region derived from E. coli mg1B (galactose binding protein), 16 = V (Escherichia coli, UniProt P0AEE5, F39V); assay: Kd of residue 16 variant at room temperature (D263)
T6 construct: made in E. coli, purified
From the text: as §1, §2

[7] = target: T7, FRET-based glucose-detection molecule D278, SEQ ID No. 3, glucose-binding region derived from E. coli mg1B (galactose binding protein), residue 16 = Q (Escherichia coli, UniProt P0AEE5, DELINS298-299[…]/F39Q); assay: FRET:F ratio at different glucose concentrations, Kd extracted from curve (D278); settings: FIG. 5B
T7 construct: red acceptor fluorophore at N-terminus with linker; FRET sensor D278; made in E. coli, purified
From the text: as §3, §4, §2

[8] = target: T8, FRET-based glucose-detection molecule D267, glucose-binding region derived from E. coli mg1B (galactose binding protein), 16 = N (Escherichia coli, UniProt P0AEE5, F39N); assay: Kd of residue 16 variant at room temperature (D267)
T8 construct: made in E. coli, purified
From the text: as §1, §2

T5 sequence (P0AEE5 24-332 F39A limits assumed): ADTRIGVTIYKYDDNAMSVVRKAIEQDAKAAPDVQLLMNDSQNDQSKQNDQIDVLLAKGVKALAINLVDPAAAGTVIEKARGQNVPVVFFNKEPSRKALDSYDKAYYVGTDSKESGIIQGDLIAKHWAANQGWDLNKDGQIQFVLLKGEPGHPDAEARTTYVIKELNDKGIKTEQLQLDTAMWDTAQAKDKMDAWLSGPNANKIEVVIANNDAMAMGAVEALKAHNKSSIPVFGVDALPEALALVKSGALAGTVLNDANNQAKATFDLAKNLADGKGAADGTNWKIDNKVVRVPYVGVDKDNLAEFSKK
T2 sequence (P0AEE5 other isoform, or with tags, fused parts or gaps with the stated changes): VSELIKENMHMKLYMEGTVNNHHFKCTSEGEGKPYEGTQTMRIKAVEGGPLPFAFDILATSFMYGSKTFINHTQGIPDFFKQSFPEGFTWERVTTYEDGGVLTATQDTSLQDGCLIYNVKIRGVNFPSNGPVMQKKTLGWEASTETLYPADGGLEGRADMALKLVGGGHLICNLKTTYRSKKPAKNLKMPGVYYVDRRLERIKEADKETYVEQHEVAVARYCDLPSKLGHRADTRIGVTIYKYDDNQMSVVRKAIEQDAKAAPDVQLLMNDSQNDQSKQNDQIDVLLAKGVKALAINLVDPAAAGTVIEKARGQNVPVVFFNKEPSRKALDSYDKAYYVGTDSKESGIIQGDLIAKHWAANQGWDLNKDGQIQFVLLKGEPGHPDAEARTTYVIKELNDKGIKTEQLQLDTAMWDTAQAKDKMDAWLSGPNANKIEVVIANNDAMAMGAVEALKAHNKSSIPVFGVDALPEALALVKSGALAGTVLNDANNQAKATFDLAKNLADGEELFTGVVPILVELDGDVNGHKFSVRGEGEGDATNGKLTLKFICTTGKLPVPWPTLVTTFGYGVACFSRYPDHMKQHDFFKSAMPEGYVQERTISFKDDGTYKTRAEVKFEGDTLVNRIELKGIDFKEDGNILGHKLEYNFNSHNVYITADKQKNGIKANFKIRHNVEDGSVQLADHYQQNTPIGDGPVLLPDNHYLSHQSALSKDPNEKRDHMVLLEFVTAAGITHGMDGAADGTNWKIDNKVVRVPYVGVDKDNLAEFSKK
T6 sequence (P0AEE5 24-332 F39V limits assumed): as the sequence (P0AEE5 24-332 F39A limits assumed) above, with A16V counted along it
T3 sequence (P0AEE5 other isoform, or with tags, fused parts or gaps with the stated changes): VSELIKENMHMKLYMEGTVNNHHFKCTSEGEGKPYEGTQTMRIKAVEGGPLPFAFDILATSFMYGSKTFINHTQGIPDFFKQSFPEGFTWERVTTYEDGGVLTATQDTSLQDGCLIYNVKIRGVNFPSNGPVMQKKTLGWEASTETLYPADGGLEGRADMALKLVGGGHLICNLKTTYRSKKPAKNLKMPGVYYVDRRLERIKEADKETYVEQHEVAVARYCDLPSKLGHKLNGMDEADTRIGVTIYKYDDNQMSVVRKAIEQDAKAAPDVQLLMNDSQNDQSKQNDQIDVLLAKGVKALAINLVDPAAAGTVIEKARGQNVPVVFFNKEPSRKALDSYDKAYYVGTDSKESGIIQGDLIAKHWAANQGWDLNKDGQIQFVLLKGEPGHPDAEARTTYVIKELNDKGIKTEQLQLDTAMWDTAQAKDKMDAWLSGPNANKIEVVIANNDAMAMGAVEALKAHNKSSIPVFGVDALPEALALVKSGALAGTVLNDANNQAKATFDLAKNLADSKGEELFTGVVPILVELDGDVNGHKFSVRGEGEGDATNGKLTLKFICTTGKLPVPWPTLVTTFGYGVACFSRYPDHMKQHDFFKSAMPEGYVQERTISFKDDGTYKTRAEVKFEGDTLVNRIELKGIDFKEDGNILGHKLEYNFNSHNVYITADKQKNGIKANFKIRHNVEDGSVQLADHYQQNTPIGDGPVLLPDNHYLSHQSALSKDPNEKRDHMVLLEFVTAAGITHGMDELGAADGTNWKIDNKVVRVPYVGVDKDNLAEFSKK
T4 sequence (P0AEE5 other isoform, or with tags, fused parts or gaps with the stated changes): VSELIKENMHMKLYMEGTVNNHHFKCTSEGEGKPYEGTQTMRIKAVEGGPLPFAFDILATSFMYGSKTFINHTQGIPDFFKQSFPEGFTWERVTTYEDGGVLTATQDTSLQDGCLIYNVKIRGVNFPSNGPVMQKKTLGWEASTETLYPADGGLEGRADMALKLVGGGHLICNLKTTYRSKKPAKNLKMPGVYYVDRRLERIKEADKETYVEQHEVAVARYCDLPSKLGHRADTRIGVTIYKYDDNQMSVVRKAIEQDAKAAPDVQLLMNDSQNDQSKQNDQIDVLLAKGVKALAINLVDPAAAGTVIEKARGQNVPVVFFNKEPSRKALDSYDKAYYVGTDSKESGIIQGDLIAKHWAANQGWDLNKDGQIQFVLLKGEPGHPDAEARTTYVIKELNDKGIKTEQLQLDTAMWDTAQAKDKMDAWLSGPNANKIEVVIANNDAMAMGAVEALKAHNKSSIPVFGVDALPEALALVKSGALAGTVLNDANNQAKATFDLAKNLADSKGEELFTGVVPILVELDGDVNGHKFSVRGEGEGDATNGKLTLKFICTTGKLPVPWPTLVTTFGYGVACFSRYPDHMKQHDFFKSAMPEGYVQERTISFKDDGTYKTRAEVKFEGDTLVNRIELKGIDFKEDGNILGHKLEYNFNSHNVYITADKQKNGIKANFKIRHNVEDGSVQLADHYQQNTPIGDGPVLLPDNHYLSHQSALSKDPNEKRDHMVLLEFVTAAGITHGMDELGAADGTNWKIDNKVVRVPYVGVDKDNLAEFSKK
T7 sequence (P0AEE5 other isoform, or with tags, fused parts or gaps with the stated changes): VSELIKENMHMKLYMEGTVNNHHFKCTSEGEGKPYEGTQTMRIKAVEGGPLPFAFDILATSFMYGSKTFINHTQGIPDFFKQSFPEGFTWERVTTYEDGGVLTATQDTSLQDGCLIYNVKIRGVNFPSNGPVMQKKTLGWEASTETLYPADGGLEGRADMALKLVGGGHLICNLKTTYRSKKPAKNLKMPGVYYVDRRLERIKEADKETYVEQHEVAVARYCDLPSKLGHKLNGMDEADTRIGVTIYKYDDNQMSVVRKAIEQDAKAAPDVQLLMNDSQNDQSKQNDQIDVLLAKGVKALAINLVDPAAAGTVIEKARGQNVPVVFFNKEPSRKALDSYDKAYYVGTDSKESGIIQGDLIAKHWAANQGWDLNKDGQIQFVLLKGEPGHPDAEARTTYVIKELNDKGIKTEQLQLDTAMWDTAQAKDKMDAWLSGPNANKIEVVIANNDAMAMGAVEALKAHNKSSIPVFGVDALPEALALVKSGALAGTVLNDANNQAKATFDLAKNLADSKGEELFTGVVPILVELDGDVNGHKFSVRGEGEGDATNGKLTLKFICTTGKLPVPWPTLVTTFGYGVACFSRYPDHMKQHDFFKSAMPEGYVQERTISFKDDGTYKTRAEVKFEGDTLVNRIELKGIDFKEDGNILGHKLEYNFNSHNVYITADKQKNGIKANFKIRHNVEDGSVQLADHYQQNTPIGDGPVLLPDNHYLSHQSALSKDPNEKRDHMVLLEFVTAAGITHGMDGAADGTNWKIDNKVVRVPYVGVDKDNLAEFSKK
T1 sequence (P0AEE5 24-332 F39Q limits assumed): as the sequence (P0AEE5 24-332 F39A limits assumed) above, with A16Q counted along it
T8 sequence (P0AEE5 24-332 F39N limits assumed): as the sequence (P0AEE5 24-332 F39A limits assumed) above, with A16N counted along it

For `OC[C@H]1OC(O)[C@H](O)[C@@H](O)[C@@H]1O` (some centres unmarked) [glucose], the Kd [1] was 0.3 mM, the “Kd at different temperatures” value [2] was “Kd increased with temperature for all four molecules; the change was greatest for D279” and the “Kd at different temperatures” value [3] was “Kd increased with temperature for all four molecules”. For the same compound, the “Kd at different temperatures” value [4] was “Kd increased with temperature for all four molecules; the change was greatest for D279, and smallest for D274”, the Kd [5] was 3.2 mM and the Kd [6] was 7.9 mM. The “Kd at different temperatures” value [7] was “Kd increased with temperature for all four molecules” and the Kd [8] was 9.4 mM.
